# From US11484031B2, “Seed coating agent for preventing and treating wheat rot disease” (Institute of Plant Protection and Agro-products Safety, …, priority 2020, dated 2022)
# Experiments:
# [1] = test system: Gaeumannomycesgraminisvar. tritici; test: Mycelial growth assay (virulence test) of single agents and mixtures, Wadley method; assay type: cell-based; details: mycelial growth on medicated medium, 25° C.; ratio G:D = silothiamine:coumoxystrobin
# Protocol: The bactericidal properties of silthiopham and coumoxystrobin are analyzed in detail. First, the EC50 ([…]) of the two single compounds of silthiostrobin and coumoxystrobin is determined. According to the EC50 of the two single drugs, the combination ratio of the two drugs is determined according to the Wadley method, and synergy coefficient SR value according to Wadley.
# The test target is Gaeumannomycesgraminisvar. tritici, which causes wheat rot disease, but it is not limited to this. Silthiopham and coumoxystrobin are taken and prepared into a liquid plate about 15 ml per dish. At the edge of the pre-cultured colony, a 5 mm diameter hyphae block is prepared with a sterile puncher, and then transferred to different medium plates and cultured at 25° C. The test adopts the mycelial growth assay method, and prepares medicated medium according to different treatments. At the edge of the pre-cultured colony, a 5 mm diameter hyphae block is prepared with a sterile puncher, and then transferred to medium plates with different drug contents. […]
# According to the Wadley method to evaluate the interaction of the mixture, the calculation formula is as follows: EC50(theoretical value)=(a+b)/(a/EC50a+b/EC50b), SR=EC50(theoretical value)/EC50(actual value). wherein, a and b are the content ratio of each component in the mixture, and the effect of mixing is analyzed by SR value. […]
# wheat seeds = test: Seed soaking test: emergence rate and seedling stage of wheat seeds; assay type: in vivo, wheat variety "An Nong 0711"; details: seed soaking seed:drug solution=1:2, 20 minutes, after 40 days, compound sodium nitrophenolate at 0.05%, salicylic acid at 0.01%
# Protocol: Seed initiator composition 1 with a measured content of 0.06% (compound sodium nitrophenolate 0.05%, salicylic acid 0.01%, the balance water) was diluted 10 times to form seed initiator composition 2 with a content of 0.006% (compound sodium nitrophenolate 0.005%, salicylic acid 0.001%, the balance water). The seed initiator composition 2 was treated with 0.05% compound sodium nitrophenolate, 0.01% salicylic acid and distilled water as a control. The effect on […] seed vigor was determined according to the above compositions. The experimental wheat variety was “An Nong 0711”, and the experiment was carried out in the experimental base of Anhui Academy of Agricultural Sciences. Seed soaking is carried out according to the weight ratio of seed:drug solution=1:2. After soaking for 20 minutes, sowing in the shade and drying in the shade, the seedling emergence rate, plant height, root length and fresh weight are calculated after 40 days.
compound,measurement,setting,value
"C=CCNC(=O)c1c([Si](C)(C)C)sc(C)c1C [Silothiamine(G), N-allyl-4,5-dimethyl-2-(trimethylsilyl) thiophene-3-carboxamide]",EC50,[1],0.6893 ppm
"CCCCc1c(C)c2ccc(OCc3ccccc3/C(=C\OC)C(=O)OC)cc2oc1=O [Coumoxystrobin(D), (E)-2-(2-(3-n-butyl-4methyl-coumarin-7-yloxy)methylphenyl)-3-methoxy Methyl acrylate]",EC50,[1],2.3127 ppm
O=C(O)c1ccccc1O [Salicylic acid],"Fresh weight (10 plants, g)",wheat seeds; 10 plants,1.28 ± 0.17 g
same,Emergence rate,wheat seeds,83.8%
same,Plant height,wheat seeds,10.5 ± 1.7 cm
same,Root length,wheat seeds,4.8 ± 1.3 cm
